Data as given in the SangsterLogP compilation.

Experiment: method code SF-HPLC, from DOI: 10.1023/a:1015933504191, PMID: 2122435
Settings: pH 7.4

SMILES | logD
NC(=O)[C@@H]1CCCN1C(=O)[C@H](Cc1cn(C(=O)OC2CCCCC2)cn1)NC(=O)[C@@H]1CCC(=O)N1 | 0.6
CCOC(=O)n1cnc(C[C@H](NC(=O)[C@@H]2CCC(=O)N2)C(=O)N2CCC[C@H]2C(N)=O)c1 | -1.3
NC(=O)[C@@H]1CCCN1C(=O)[C@H](Cc1cn(C(=O)OCc2ccccc2)cn1)NC(=O)[C@@H]1CCC(=O)N1 | -0.11
CCCCCCCCOC(=O)n1cnc(C[C@H](NC(=O)[C@@H]2CCC(=O)N2)C(=O)N2CCC[C@H]2C(N)=O)c1 | 1.88
CCC(CC)OC(=O)n1cnc(C[C@H](NC(=O)[C@@H]2CCC(=O)N2)C(=O)N2CCC[C@H]2C(N)=O)c1 | 0.2
CCCCOC(=O)n1cnc(C[C@H](NC(=O)[C@@H]2CCC(=O)N2)C(=O)N2CCC[C@H]2C(N)=O)c1 | -0.47
CCCCC(CC)COC(=O)n1cnc(C[C@H](NC(=O)[C@@H]2CCC(=O)N2)C(=O)N2CCC[C@H]2C(N)=O)c1 (some centres not stated) | 1.82
CCCCCCOC(=O)n1cnc(C[C@H](NC(=O)[C@@H]2CCC(=O)N2)C(=O)N2CCC[C@H]2C(N)=O)c1 | 0.71
CC(C)COC(=O)n1cnc(C[C@H](NC(=O)[C@@H]2CCC(=O)N2)C(=O)N2CCC[C@H]2C(N)=O)c1 | -0.44
CCCC(CCC)OC(=O)n1cnc(C[C@H](NC(=O)[C@@H]2CCC(=O)N2)C(=O)N2CCC[C@H]2C(N)=O)c1 | 1.2
CC(C)OC(=O)n1cnc(C[C@H](NC(=O)[C@@H]2CCC(=O)N2)C(=O)N2CCC[C@H]2C(N)=O)c1 | -0.8
COC(=O)n1cnc(C[C@H](NC(=O)[C@@H]2CCC(=O)N2)C(=O)N2CCC[C@H]2C(N)=O)c1 | -1.88
